In US20240252461A1, “COMPOSITIONS AND METHODS FOR TREATMENT OF DEMYELINATION” (priority 2018, published 2024):

Tests used:
[1] = Blood-brain barrier penetration: DFO concentration in rat brain after IP injection; type: in vivo; settings: for fraction of DFO that infiltrated the brain / DFO (mg/g organ) / DFO (mg/whole organ): SD rats; for fraction of DFO that infiltrated the brain: 90 min; for DFO (mg/g organ): brain; for DFO (mg/whole organ): whole brain
Description: In this study, the ability of the Zn-DFO complex to infiltrate into the brain was examined. Rats were injected intraperitoneally (IP) with increasing amounts of DFO alone or Zn-DFO complex, and the concentration of DFO was measured in their brains, thus monitoring their infiltrability.
(§1) In particular, male Sprague-Dawley (SD) rats (300 g average body weight, 3 animals per group) were injected IP with DFO (250, 500, or 1000 mg/kg body weight). For comparison, Zn-DFO solution in freshly prepared saline was injected IP (250, 500, or 1000 mg/kg body weight, which are equivalent to 221, 442, or 883 mg DFO/kg body weight, respectively).
(§2) The behavior of the rats was monitored for 90 min following the injection. Then, the animals were euthanized using an injection of ketamine-xylazine, and their hearts, livers, left kidneys, and brains were excised and weighted. Brain samples (300 mg tissue) were washed homogenized in 3 ml Lysis buffer. Tissue homogenates were incubated at 110° C. for 5 min and centrifuged for 5 min at 14,500 relative centrifugal force (RCF). An equal volume of 40% trichloroacetic acid (TCA) solution was added, forming a solution containing 20% TCA, which was vortexed and centrifuged again. The supernatants were transferred into cuvettes, and DFO concentration was spectrophotometrically measured, after addition of 10 mM of ferric iron solution (as a weak complex of iron, ferric-nitrilo-triacetate, at pH=7.4), and scanning the range of λ=380−580 nm. The final concentration was calculated according to the Beer-Lambert law, using εDFO=2460 M^−1cm^−1: the total amount of DFO per gram tissue and per whole brain were calculated.

[2] = Behavior of rats monitored for 90 min following IP injection; type: in vivo, rat; settings: the three doses (250, 500, 1000 mg/kg IP)
Description: as §1, §2

[3] = system: MS; settings: cited from earlier work
[4] = system: Experimental Autoimmune Encephalomyelitis (EAE) model; experiment: Murine Experimental Autoimmune Encephalomyelitis (EAE) model of multiple sclerosis; type: in vivo, C57BL/6 mice; settings: glatiramer acetate 200 μg SC on day 0, alone
Description: In this study, the therapeutic effect of treatment with glatiramer acetate (Copaxone®) alone or in combination with Zn-DFO on multiple sclerosis (MS) is tested, using the murine Experimental Autoimmune Encephalomyelitis (EAE) model.
EAE is induced in 8-week-old female C57BL/6 mice by subcutaneous (SC) injection of 125 μg of myelin oligodendrocyte glycoprotein 35-55 peptide (MOG35-55) emulsified in complete Freund's adjuvant (CFA) containing 5 mg/ml heat-killed Mycobacterium tuberculosis into the left para-lumbar region. Immediately thereafter, and again at 48 h, the mice are inoculated intraperitoneal (IP) with 0.5 ml of pertussis toxin (400 ng). Seven days later, the mice are further challenged with an additional injection of MOG35-55 peptide in CFA injected into the right para-lumbar region.
Mice are treated with SC injection of 200 (μg glatiramer acetate (Copaxone®) per animal in mannitol 4% emulsion on day 0. Part of the animals are continued to be treated with Zn-DFO as IP injections, 2 mg/kg or 6 mg/kg, thrice a week till the end of the experiment (Day 28). Two additional groups of mice are treated with Zn-DFO analogously, but without the preceding injection with glatiramer acetate. The severity of the disease is assessed using the scale shown in Table 2 (Bittner et al. 2014).

[5] = 90 min after IP injection of 250 mg/kg
[6] = 90 min after IP injection of 500 mg/kg
[7] = 90 min after IP injection of 1000 mg/kg

Row | Compound | fraction of DFO that infiltrated the brain ([1]; IP 250 mg/kg) [%] | fraction of DFO that infiltrated the brain ([1]; IP 500 mg/kg) [%] | fraction of DFO that infiltrated the brain ([1]; IP 1000 mg/kg) [%] | DFO (mg/g organ) [1, 5] [mg/g organ] | DFO (mg/g organ) [1, 6] [mg/g organ] | DFO (mg/g organ) [1, 7] [mg/g organ] | fraction of DFO that had infiltrated into the brain ([1]; corresponding doses (250, 500, 1000 mg/kg IP), limited sensitivity of the instrument) [%] | DFO (mg/whole organ) [1, 5] [mg/whole organ] | DFO (mg/whole organ) [1, 6] [mg/whole organ] | DFO (mg/whole organ) [1, 7] [mg/whole organ] | rats' behavior after injection [2] | effect on the main outcome measures in MS (disease progression) ([3]; La Mantia et al., 2010) | reduction of relapses ([3]; relapsing-remitting MS, Hassan-Smith et al., 2011) | day on which peak clinical score is reached [4] [days] | onset of the disease [4] [days]
1 | CC(=O)N(O)CCCCCNC(=O)CCC(=O)N(O)CCCCCNC(=O)CCC(=O)N(O)CCCCCN [DFO, N′-[5-(acetyl-hydroxy-amino)pentyl]-N-[5-[3-(5-aminopentyl-hydroxy-carbamoyl)propanoylamino]pentyl]-N-hydroxy-butane diamide] | <0.0015 | <0.0015 | 0.002 | <0.005 | <0.005 | 0.008 ± 0.004 | ≤ 0.002 | <0.005 | <0.005 | 0.019 ± 0.008 | no changes in rats' behavior |  |  |  | 
2 | glatiramer acetate |  |  |  |  |  |  |  |  |  |  |  | did not show any beneficial effect | approximately 30% | 17 | 14
